Laboratory results: ChEMBL document CHEMBL1129821, “Synthesis and biological evaluation of non-polyene analogs of amphotericin B” (1997)
Converted amounts (≈) assume the structure as drawn.

What was measured:
Cryptococcus neoformans = test: Minimum inhibitory concentration required for antifungal activity against Cryptococcus neoformans (271A); assay type: functional
Candida albicans = test: Minimum inhibitory concentration required for antifungal activity against Candida albicans(16820); assay type: functional

SMILES: COC(=O)[C@H]1[C@@H]2C[C@@H](O[C@@H]3O[C@H](C)[C@@H](O)[C@H](N)[C@@H]3O)/C=C/C=C/C=C/C=C/C=C/C=C/C=C/[C@H](C)[C@@H](O)[C@@H](C)[C@H](C)OC(=O)C[C@H](O)C[C@H](O)CC[C@@H](O)[C@H](O)C[C@H](O)C[C@](O)(C[C@@H]1O)O2 [AMPHOTERICIN B ME ESTER]
- MIC (Cryptococcus neoformans): 8000 µg/mL (≈ 8.53 mM)
- MIC (Candida albicans): 8000 µg/mL (≈ 8.53 mM)
